From patent US20230000813A1, “COMPOUND FOR THE TREATMENT OF BOVINE OR SWINE RESPIRATORY DISEASE” (Intervet Inc., priority 2016, published 2023)
≈ marks a conversion by molar mass, not a printed value.

How the values were obtained:
Assay in all cases: MIC, broth-microdilution (CLSI VET01-A4)
Format in all cases: cell-based
[1] = tested on: Mannheimia haemolytica MH 10720 (154, BRD field isolate); settings: Mannheimia haemolytica MH 10720
How it was run: (§1)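 MIC values follow CLSI VET01-S3 interpretation, scored as the lowest concentration free of visible turbidity within a doubling dilution series in microdilution trays.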

[2] = tested on: Mannheimia haemolytica MH 12587 (1071, BRD field isolate, macrolide-resistance: erm+, E+); settings: Mannheimia haemolytica MH 12587, macrolide-resistant
How it was run: as §1

[3] = tested on: Mannheimia haemolytica MH 6357 (M7/2, reference strain, cattle infection strain); settings: Mannheimia haemolytica MH 6357; read-out: MIC MH 6357
How it was run: as §1

[4] = tested on: Mannheimia haemolytica MH 6374 (ATCC 33396, reference strain); settings: Mannheimia haemolytica MH 6374; read-out: MIC MH 6374
How it was run: as §1

[5] = tested on: Pasteurella multocida PM 10775 (080130003051, BRD field isolate); settings: Pasteurella multocida PM 10775
How it was run: as §1

[6] = tested on: Pasteurella multocida PM 12080 (IV102277-0093, BRD field isolate); settings: Pasteurella multocida PM 12080; for MIC: read-out: MIC PM 12080
How it was run: as §1

[7] = tested on: Pasteurella multocida PM 6267 (P 2225 (L386), reference strain, mouse infection strain); settings: Pasteurella multocida PM 6267
How it was run: as §1

[8] = tested on: Pasteurella multocida PM 6391 (ATCC 43137, reference strain); settings: Pasteurella multocida PM 6391; for MIC: read-out: MIC PM 6391
How it was run: as §1

[9] = tested on: Mannheimia haemolytica MH 13065 (XB0446-6003.9, BRD field isolate)
How it was run: (§2)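 MIC read by eye as lowest compound concentration without visible growth (no turbidity), interpreted per CLSI VET01-S3. Doubling-dilution broth-microdilution trays, run according to CLSI VET01-A4.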

[10] = tested on: Mannheimia haemolytica MH 13093 (XB0472-6014.1, BRD field isolate)
How it was run: as §2

In the case of `C#CCNCc1ccc(C#Cc2ccc(C(=O)NC(C(=O)NO)C(C)(C)N)cc2)s1` (racemic) [Compound 633], the “MIC MH 10720” value [1] is reported as “<=0.1 μM”, the “MIC MH 12587” value [2] is reported as 0.8 µM (≈ 0.34 µg/mL) and the MIC [3] is reported as 0.8 µM (≈ 0.34 µg/mL). The MIC [4] was 0.4 µM (≈ 0.17 µg/mL), the “MIC PM 10775” value [5] was “<=0.1 μM” and the MIC [6] was 0.2 µM (≈ 0.0849 µg/mL). The “MIC PM 6267” value [7] was “<=0.1 μM”, the MIC [8] was 0.2 µM (≈ 0.0849 µg/mL) and the MIC [9] was 0.8 µM (≈ 0.34 µg/mL). The MIC [10] was 0.8 µM (≈ 0.34 µg/mL).
In the case of `CSCCNCc1ccc(C#Cc2ccc(C(=O)NC(C(=O)NO)C(C)(C)N)cc2)s1` (racemic) [Compound 635], the “MIC MH 10720” value [1] is reported as “<=0.1 μM”, the “MIC MH 12587” value [2] is reported as 1.6 µM (≈ 0.737 µg/mL) and the MIC [3] is reported as 1.6 µM (≈ 0.737 µg/mL). For the same molecule, the MIC [4] was 0.4 µM (≈ 0.184 µg/mL), the “MIC PM 10775” value [5] was “<=0.1 μM” and the “MIC PM 12080” value [6] was “<=0.1 μM”. For the same molecule, the “MIC PM 6267” value [7] was “<=0.1 μM”, the MIC [8] was 0.4 µM (≈ 0.184 µg/mL) and the MIC [9] was 0.8 µM (≈ 0.369 µg/mL). It also gave an MIC [10] of 0.8 µM (≈ 0.369 µg/mL).
With `Cc1cnc(CNCc2ccc(C#Cc3ccc(C(=O)NC(C(=O)NO)C(C)(C)N)cc3)s2)o1` (racemic) [Compound 636] the “MIC MH 10720” value [1] was “<=0.1 μM”, the “MIC MH 12587” value [2] was 1.6 µM (≈ 0.771 µg/mL) and the MIC [3] was 0.8 µM (≈ 0.385 µg/mL). The MIC [4] was 0.4 µM (≈ 0.193 µg/mL), the “MIC PM 10775” value [5] was “<=0.1 μM” and the MIC [6] was 0.4 µM (≈ 0.193 µg/mL). The “MIC PM 6267” value [7] was “<=0.1 μM”, the MIC [8] was 0.4 µM (≈ 0.193 µg/mL) and the MIC [9] was 1.6 µM (≈ 0.771 µg/mL). For the same molecule, the MIC [10] was 0.8 µM (≈ 0.385 µg/mL).
For `CC(C)(N)C(NC(=O)c1ccc(C#Cc2ccc(CNCc3ccc(F)cc3)s2)cc1)C(=O)NO` (racemic) [Compound 637], the “MIC MH 10720” value [1] was “<=0.1 μM”, the “MIC MH 12587” value [2] was 1.6 µM (≈ 0.791 µg/mL) and the MIC [3] was 0.8 µM (≈ 0.396 µg/mL). For the same molecule, the MIC [4] was 0.4 µM (≈ 0.198 µg/mL), the MIC ([5]; read-out: MIC PM 10775) was 0.2 µM (≈ 0.0989 µg/mL) and the MIC [6] was 0.2 µM (≈ 0.0989 µg/mL). The “MIC PM 6267” value [7] was “<=0.1 μM”, the MIC [8] was 0.4 µM (≈ 0.198 µg/mL) and the MIC [9] was 1.6 µM (≈ 0.791 µg/mL). For the same molecule, the MIC [10] was 0.8 µM (≈ 0.396 µg/mL).
In the case of `C#CCNCc1ccc(C#Cc2ccc(C(=O)NC(C(=O)NO)C(C)(C)N)cc2)cn1` (racemic) [Compound 647], the MIC ([1]; read-out: MIC MH 10720) is reported as 0.4 µM (≈ 0.168 µg/mL), the “MIC MH 12587” value [2] is reported as 1.6 µM (≈ 0.671 µg/mL) and the MIC [3] is reported as 1.6 µM (≈ 0.671 µg/mL). The MIC [4] was 0.8 µM (≈ 0.336 µg/mL), the “MIC PM 10775” value [5] was “<=0.1 μM” and the MIC [6] was 0.4 µM (≈ 0.168 µg/mL). For the same molecule, the “MIC PM 6267” value [7] was “<=0.1 μM”, the MIC [8] was 0.4 µM (≈ 0.168 µg/mL) and the MIC [9] was 0.8 µM (≈ 0.336 µg/mL). The MIC [10] was 0.8 µM (≈ 0.336 µg/mL).
`CC(C)(N)C(NC(=O)c1ccc(C#Cc2ccc(CNCC(F)(F)F)s2)cc1)C(=O)NO` (racemic) [Compound 648] was tested, and the “MIC MH 10720” value [1] was “<=0.1 μM”, the “MIC MH 12587” value [2] was 0.8 µM (≈ 0.375 µg/mL) and the MIC [3] was 0.8 µM (≈ 0.375 µg/mL). The MIC [4] was 0.4 µM (≈ 0.187 µg/mL), the “MIC PM 10775” value [5] was “<=0.1 μM” and the MIC [6] was 0.2 µM (≈ 0.0937 µg/mL). For the same molecule, the “MIC PM 6267” value [7] was “<=0.1 μM”, the MIC [8] was 0.4 µM (≈ 0.187 µg/mL) and the MIC [9] was 0.4 µM (≈ 0.187 µg/mL). For the same molecule, the MIC [10] was 1.6 µM (≈ 0.75 µg/mL).
`CC(C)(N)C(NC(=O)c1ccc(C#Cc2ccc(CN3CC=CC3)s2)cc1)C(=O)NO` (racemic) [Compound 649] was tested, and the “MIC MH 10720” value [1] was “<=0.1 μM”, the “MIC MH 12587” value [2] was 0.8 µM (≈ 0.351 µg/mL) and the MIC [3] was 0.8 µM (≈ 0.351 µg/mL). The MIC [4] was 0.4 µM (≈ 0.175 µg/mL), the “MIC PM 10775” value [5] was “<=0.1 μM” and the MIC [6] was 0.2 µM (≈ 0.0877 µg/mL). For the same molecule, the “MIC PM 6267” value [7] was “<=0.1 μM”, the MIC [8] was 0.2 µM (≈ 0.0877 µg/mL) and the MIC [9] was 0.4 µM (≈ 0.175 µg/mL). For the same molecule, the MIC [10] was 0.8 µM (≈ 0.351 µg/mL).
`CC(C)(C(NC(=O)c1ccc(C#Cc2ccc(CNCc3ccccc3)cc2)cc1)C(=O)NO)[N+](=O)[O-]` (racemic) [Compound 652] was tested, and the “MIC MH 10720” value [1] was “<=0.1 μM”, the “MIC MH 12587” value [2] was 0.8 µM (≈ 0.4 µg/mL) and the MIC [3] was 0.8 µM (≈ 0.4 µg/mL). For the same molecule, the MIC [4] was 0.8 µM (≈ 0.4 µg/mL), the “MIC PM 10775” value [5] was “<=0.1 μM” and the “MIC PM 12080” value [6] was “<=0.1 μM”. For the same molecule, the “MIC PM 6267” value [7] was “<=0.1 μM”, the MIC [8] was 0.4 µM (≈ 0.2 µg/mL) and the MIC [9] was 0.4 µM (≈ 0.2 µg/mL). It also gave an MIC [10] of 0.8 µM (≈ 0.4 µg/mL).
For `CC(C)(C(NC(=O)c1ccc(C#Cc2ccc(CNCc3ccncc3)cc2)cc1)C(=O)NO)[N+](=O)[O-]` (racemic) [Compound 654], the “MIC MH 10720” value [1] was “<=0.1 μM”, the “MIC MH 12587” value [2] was 0.8 µM (≈ 0.401 µg/mL) and the MIC [3] was 0.4 µM (≈ 0.201 µg/mL). For the same molecule, the MIC [4] was 0.4 µM (≈ 0.201 µg/mL), the “MIC PM 10775” value [5] was “<=0.1 μM” and the “MIC PM 12080” value [6] was “<=0.1 μM”. The “MIC PM 6267” value [7] was “<=0.1 μM”, the “MIC PM 6391” value [8] was “<=0.1 μM” and the MIC [9] was 0.4 µM (≈ 0.201 µg/mL). The MIC [10] was 0.4 µM (≈ 0.201 µg/mL).
